In patent US4522815A, “Anthracycline glycosides” (priority 1982, dated 1985):
Values after ≈ are worked out from the molar mass of the structure shown. Like-named read-outs stand apart in the source and are kept apart here.

Experiments:
ascitic P388 leukemia = experiment: Antitumor activity against ascitic P388 leukemia in CDF-1 mice, treatment i.p. on day 1; format: in vivo
Method: The primary screening […] was carried out in CDF-1 mice bearing ascitic P388 leukemia (10^6 cells/mouse). Both IIa and IIc were suspended in 10%. Tween 80 and injected intraperitoneally.
Results of the primary screening "in vivo" carried out in CDF-1 mice bearing P388 ascitic leukemia and treated i.p. the day after tumor transplantation, are reported in Table 5.
Antitumor activity against ascitic P388 leukekemia.
(§1) Treatment i.p. on day 1.
^a median survival time; % over untreated controls
^b long term survivors (≥ 60 days)
^c evaluated on the basis of autoptic findings on dead mice
(§2) ^d data of two experiments (range)
^e date of three experiments (range)
Antitumor activity of Ib and Id against ascitic P388
as §1

HeLa cells = experiment: Colony inhibition test against HeLa cells in vitro (cloning efficiency), treatment for 24 hrs; format: cell-based; conditions: for activity at 0.0062 µg/mL: 6.2 ng/ml; for activity at 0.025 µg/mL: 25 ng/ml; for IC50: HeLa colony inhibition; for activity at 0.0125 µg/mL: 12.5 ng/ml
Gross leukemia [1] = experiment: Oral activity against i.v. transplanted Gross leukemia (i.v. comparators); format: in vivo, C3H/Me mice; conditions: for T/C %, median survival time / Toxic deaths: Table 7
Excerpt: (§3) Results of studies performed in C3H/Me mice carrying i.v. transplanted Gross leukemia and treated i.v. the day after tumor transplantation, are reported in Table 6. […] The compounds Ib and Id were further investigated for oral activity on Gross leukemic transplanted i.v., in comparison with DNR, DX given i.v. and 4-dm DNR given oral route.
Oral activity of Ib and Id against Gross leukemia
^a days after transplantation
as §2

Gross leukemia [2] = experiment: Antitumor activity against i.v. transplanted Gross leukemia in C3H/Me mice, treatment i.v. on day 1; format: in vivo; conditions: for T/C, median survival time; % over untreated controls / Toxic deaths: Table 6
Excerpt: as §3
Antitumor activity against i.v. Gross leukemia.
Treatment i.v. on day 1.

[3] = test system: P388 leukemia cells sensitive to DX; experiment: Cytotoxicity on doxorubicin-sensitive P388 leukemia cells in vitro, 48 hrs exposure; format: cell-based, mice; conditions: for IC50: Mus musculus, P388, dose giving 50% reduction of cell number vs untreated controls, 48 hrs, read-out: ID50 P388
Excerpt: P388 and P388/DX leukemia cells were harvested from mice ascitic fluid and adapted to grow in suspension "in vitro".

[4] = test system: P388 leukemia cells resistant to DX (P388/DX); experiment: Cytotoxicity on doxorubicin-resistant P388/DX leukemia cells in vitro, 48 hrs exposure; format: cell-based, mice; conditions: for IC50: Mus musculus, P388/DX, dose giving 50% reduction of cell number vs untreated controls, read-out: ID50 P388/DX; for R: Ratio between ID50 on P388/DX and ID50 on P388: Table 4
Method: Compounds Ib and Id were studied "in vitro" on HeLa and P388 leukemia cells sensitive (P388) and resistant (P388/DX) to DX and […].
Compound Ib was studied on P388/DX "in vitro".
P388 and P388/DX leukemia cells were harvested from mice ascitic fluid and adapted to grow in suspension "in vitro". Cytotoxicity tests were carried out exposing the cells to various drug concentrations for 48 hrs; at the end of the exposure period, cells were counted with a coulter cell counter, and the ID50 (dose which gives 50% reduction of the cell number in comparison with untreated controls) was calculated.
Effect on sensitive and doxorubicin-resistant P388
^a Dose giving 50% reduction of cell number in comparison with
^c P388 leukemia cells resistant to DX
^d Ratio between ID50 on P388/DX and ID50 on P388

[5] = Homo sapiens, HeLa, Table 3, 24 hrs, read-out: No of colonies, % of untreated controls
[6] = Table 2, 4.4 mg/kg i.p. day 1, two experiments
[7] = Table 2, 6.6 mg/kg i.p. day 1, two (DNR) or three (DX) experiments
[8] = Table 5, 2.9 mg/kg i.p. day 1, two experiments
[9] = Table 5, 4.4 mg/kg i.p. day 1, DNR: two experiments
[10] = Homo sapiens, HeLa, 24 h, read-out: No of colonies, % of untreated controls, Table 1, 24 hrs
[11] = Homo sapiens, HeLa, 24 h, read-out: No of colonies, % of untreated controls, Table 3, 24 hrs

For `CC(=O)[C@]1(O)Cc2c(O)c3c(c(O)c2[C@@H](O[C@H]2C[C@H](O)[C@@H](O)[C@H](C)O2)C1)C(=O)c1ccccc1C3=O` [Compound Ib, 4-demethoxy-7-0-(2,6-dideoxy-α-L-arabino-hexopyranosyl)-daunomycinone], the “LTS, long term survivors (≥ 60 days)” value (ascitic P388 leukemia; Table 5, 1.25 mg/kg i.p. day 1) was 0/8, the “T/C, median survival time; % over untreated controls” value (“T/C, median survival time; %” for short) (ascitic P388 leukemia; Table 5, 1.25 mg/kg i.p. day 1) was 140% and the “Toxic deaths (autoptic findings on dead mice)” value (ascitic P388 leukemia; Table 5, 1.25 mg/kg i.p. day 1) was 0/8. The “LTS, long term survivors (≥ 60 days)” value (ascitic P388 leukemia; Table 5, 2.5 mg/kg i.p. day 1) was 0/9, the “T/C, median survival time; %” value (ascitic P388 leukemia; Table 5, 2.5 mg/kg i.p. day 1) was 163% and the “Toxic deaths (autoptic findings on dead mice)” value (ascitic P388 leukemia; Table 5, 2.5 mg/kg i.p. day 1) was 3/9. The “LTS, long term survivors (≥ 60 days)” value (ascitic P388 leukemia; Table 5, 5 mg/kg i.p. day 1) was 0/10, the “T/C, median survival time; %” value (ascitic P388 leukemia; Table 5, 5 mg/kg i.p. day 1) was 63% and the “Toxic deaths (autoptic findings on dead mice)” value (ascitic P388 leukemia; Table 5, 5 mg/kg i.p. day 1) was 10/10. For the same molecule, the “times less potent than 4-dm DNR” value (ascitic P388 leukemia; ascitic P388, i.p. day 1) was “about 1.5 times”, the “times more potent than DNR” value (ascitic P388 leukemia; ascitic P388, i.p. day 1) was 2 times and the “antileukemia activity, comparison at the Mx TD” value (ascitic P388 leukemia; vs DNR and 4-dm DNR) was “less active than DNR and 4-dm DNR”. The “times less cytotoxic than 4-dm DNR” value (HeLa cells; HeLa cells cloning efficiency, vs 4-dm DNR) was 6 times, the “times less cytotoxic than DNR” value (HeLa cells; HeLa cells cloning efficiency, vs DNR) was 3 times and the activity at 0.0015 µg/mL (HeLa cells; Homo sapiens, HeLa, Table 3, 1.5 ng/ml, 24 hrs, read-out: No of colonies, % of untreated controls) was 107%. It also gave an activity at 0.0062 µg/mL (HeLa cells; [5]) of 87%, an activity at 0.025 µg/mL (HeLa cells; [5]) of 67% and an activity at 0.1 µg/mL (HeLa cells; Homo sapiens, HeLa, Table 3, 100 ng/ml, 24 hrs, read-out: No of colonies, % of untreated controls) of 0%. The IC50 (HeLa cells; Homo sapiens, Table 3, 24 hrs, read-out: ID50 (the source's name)) was roughly 0.035 µg/mL (≈ 0.0702 µM), the “T/C %, median survival time” value (Gross leukemia [1]; oral +1, 2.9 mg/kg) was 167% and the Toxic deaths (Gross leukemia [1]; oral +1, 2.9 mg/kg) was 0/10. For the same molecule, the “T/C %, median survival time” value (Gross leukemia [1]; oral +1, 4.4 mg/kg) was 208%, the Toxic deaths (Gross leukemia [1]; oral +1, 4.4 mg/kg) was 0/10 and the “T/C %, median survival time” value (Gross leukemia [1]; oral +1, 6.6 mg/kg) was 116%. The Toxic deaths (Gross leukemia [1]; oral +1, 6.6 mg/kg) was 4/9, the “antitumor activity given orally at day 1” value (Gross leukemia [1]; oral day 1, Gross leukemia, Id at the Mx TD vs DX i.v.) was “good antitumor activity when given orally at day 1, comparable to that of 4-dm DNR” and the “antitumor activity, comparison of the Mx TD” value (Gross leukemia [2]; Gross leukemia, i.v. day 1) was “more active than DNR”. The “toxicity and potency vs parent compounds” value (Gross leukemia [2]; Gross leukemia, i.v. day 1) was “more toxic and more potent than the parent compounds”, the “T/C, median survival time; %” value (Gross leukemia [2]; 2.9 mg/kg i.v. day 1) was 214% and the Toxic deaths (Gross leukemia [2]; 2.9 mg/kg i.v. day 1) was 0/7. For the same molecule, the “T/C, median survival time; %” value (Gross leukemia [2]; 4.4 mg/kg i.v. day 1) was 100%, the Toxic deaths (Gross leukemia [2]; 4.4 mg/kg i.v. day 1) was 7/8 and the IC50 [3] was 1.2 ng/mL (≈ 0.00241 µM). The “cytotoxicity on P388 leukemia cells” value ([3]; vs DNR) was “about as cytotoxic as DNR”, the “activity on P388/DX leukemia cells” value ([4]; 48 hrs) was “very active” and the IC50 ([4]; 48 hrs) was 0.03 µg/mL (≈ 0.0602 µM). For the same molecule, the “R: Ratio between ID50 on P388/DX and ID50 on P388” value ([4]; 2880 min) was 25.
With `COc1cccc2c1C(=O)c1c(O)c3c(c(O)c1C2=O)C[C@@](O)(C(C)=O)C[C@@H]3O[C@H]1C[C@H](N)[C@H](O)[C@H](C)O1` [DNR, daunorubicin, reference compound] the “LTS, long term survivors (≥ 60 days)” value (ascitic P388 leukemia; Table 2, 2.9 mg/kg i.p. day 1) was 0/10, the “T/C, median survival time; %” value (ascitic P388 leukemia; Table 2, 2.9 mg/kg i.p. day 1) was 160% and the “Toxic deaths (autoptic findings on dead mice)” value (ascitic P388 leukemia; Table 2, 2.9 mg/kg i.p. day 1) was 0/10. For the same molecule, the “T/C, median survival time; %” value (ascitic P388 leukemia; Table 2, 4.4 mg/kg i.p. day 1, data of two experiments (range)) was 165-170%, the “LTS, long term survivors (≥ 60 days)” value (ascitic P388 leukemia; [6]) was 0/10 and the “Toxic deaths (autoptic findings on dead mice)” value (ascitic P388 leukemia; [6]) was 0/20. For the same molecule, the “T/C, median survival time; %” value (ascitic P388 leukemia; Table 2, 6.6 mg/kg i.p. day 1, range of two (DNR) or three (DX) experiments) was 150-160%, the “LTS, long term survivors (≥ 60 days)” value (ascitic P388 leukemia; [7]) was 0/10 and the “Toxic deaths (autoptic findings on dead mice)” value (ascitic P388 leukemia; [7]) was 7/20. The “LTS, long term survivors (≥ 60 days)” value (ascitic P388 leukemia; [8]) was 0/18, the “Toxic deaths (autoptic findings on dead mice)” value (ascitic P388 leukemia; [8]) was 0/8 and the “T/C, median survival time; %” value (ascitic P388 leukemia; Table 5, 2.9 mg/kg i.p. day 1, two experiments (range)) was 159-194%. The “LTS, long term survivors (≥ 60 days)” value (ascitic P388 leukemia; [9]) was 0/18, the “Toxic deaths (autoptic findings on dead mice)” value (ascitic P388 leukemia; [9]) was 7/18 and the “T/C, median survival time; %” value (ascitic P388 leukemia; Table 5, 4.4 mg/kg i.p. day 1, DNR: two experiments (range)) was 140-184%. It also gave an IC50 (HeLa cells; Homo sapiens, HeLa, 24 h, read-out: ID50, Table 1, 24 hrs) of roughly 0.016 µg/mL (≈ 0.0303 µM), an IC50 (HeLa cells; Homo sapiens, HeLa, 24 h, read-out: ID50, Table 3, 24 hrs) of roughly 0.012 µg/mL (≈ 0.0227 µM) and an activity at 0.0062 µg/mL (HeLa cells; [10]) of 106%. For the same molecule, the activity at 0.0125 µg/mL (HeLa cells; [10]) was 74%, the activity at 0.025 µg/mL (HeLa cells; [10]) was 12% and the activity at 0.0062 µg/mL (HeLa cells; [11]) was 83%. The activity at 0.0125 µg/mL (HeLa cells; [11]) was 51%, the activity at 0.025 µg/mL (HeLa cells; [11]) was 9% and the “T/C %, median survival time” value (Gross leukemia [1]; i.v. +1, 15 mg/kg) was 200%. For the same molecule, the Toxic deaths (Gross leukemia [1]; i.v. +1, 15 mg/kg) was 0/10, the “T/C %, median survival time” value (Gross leukemia [1]; i.v. +1, 22.5 mg/kg) was 125% and the Toxic deaths (Gross leukemia [1]; i.v. +1, 22.5 mg/kg) was 6/10. The “T/C, median survival time; %” value (Gross leukemia [2]; 15 mg/kg i.v. day 1) was 171%, the Toxic deaths (Gross leukemia [2]; 15 mg/kg i.v. day 1) was 0/8 and the “T/C, median survival time; %” value (Gross leukemia [2]; 22.5 mg/kg i.v. day 1) was 171%. For the same molecule, the Toxic deaths (Gross leukemia [2]; 22.5 mg/kg i.v. day 1) was 0/8, the IC50 [3] was 1.7 ng/mL (≈ 0.00322 µM) and the IC50 ([4]; 48 hrs) was 0.8 µg/mL (≈ 1.52 µM). The “fold less active on the resistant than on the sensitive line” value ([4]; P388/DX vs P388, 2880 min) was “about 500 fold” and the “R: Ratio between ID50 on P388/DX and ID50 on P388” value ([4]; 2880 min) was 470.
